Tests used:
[1] = system: human skin; assay: Skin blanch response in human skin following topical application; format: in vivo; details: 600 mM solution in 70:30 ethanol:water compared with supersaturated 300 mM (−) norepinephrine-tartrate
Method: Appropriate weights of each dry norepinephrine salt were weighed into clear glass vials, and appropriate volumes of ethanol and water at a ratio of 70:30, by volume, were added to achieve the indicated norepinephrine concentrations. The (+/−) norepinephrine-HCl dissolved to clarity with 5 second mixing at room temperature, and the (−) norepinephrine-tartrate required heating to 60° C. for 5 minutes and then mixing to clarify. 25 μL aliquots of each formulation were applied using a pipettor over multiple 2×2 cm patches of skin on volunteer's arm over a 20 second period. Images to record skin blanch onset, degree and duration were begun at 2 minute post-application. % Skin Blanch scores were assigned by visual evaluation. 100% Skin Blanch equaled the skin blanch seen after pressing firmly on the skin and quickly releasing.
Equal concentrations (300 mM) of the (−) norepinephrine enantiomer, either alone as the tartrate salt or in the presence of an equal amount of the (+) enantiomer HCl salt, were applied to human skin in the ethanol:water (70:30) delivery vehicle, and the pharmacologic efficacy of the (−) norepinephrine was scored based upon its ability to induce a skin blanch response by binding to al adrenergic receptors in the smooth muscle cells of the subcutaneous dermal blood vessels. […]

[2] = format: physicochemical
Method: (§1) Known weights of (−) norepinephrine-tartrate dry powder were added to individual, 2.0 ml clear glass vials. An appropriate volume of ethanol and water at a ratio of 70:30 by volume solvent was then added to achieve the indicated concentrations. Sealed vials were vortexed for five seconds and then left at room temperature for 24 hr in the dark before examination to determine turbidity of liquid due to undissolved material.
Known weights of (−) norepinephrine-tartrate or (+/−) norepinephrine-HCl dry powders were added to individual, 2.0 ml, clear glass vials. An appropriate volume of ethanol to water (70:30) solvent was then added to achieve the indicated concentrations. Sealed vials were vortexed for five seconds and then left at room temperature for 24 hr in the dark before examination to determine turbidity of liquid due to undissolved material. Table 2, below, provides the solubility of (+/−) norepinephrine-HCl and (−) norepinephrine-tartrate in topical delivery vehicle of ethanol and water (70:30).
as §1, with “the indicated norepinephrine salts” for “(−) norepinephrine-tartrate dry powder”, “ml,” for “ml”, “of” for “of ethanol and water at a ratio of”, “(ethanol:water)” for “by volume”, “hr” for “hr in the dark”

[3] = system: radiation-treated rats; assay: Radiodermatitis in radiation-treated rats after topical vasoconstrictor; format: in vivo, rat; details: two rats, 600 mM in ethanol:water (70:30) delivery vehicle applied prior to irradiation (FIG. 1)
Text: In the model, a topical vasoconstrictor was applied to a shaved area on the backs of rats prior to irradiation with a Cs^137 source. The severity of radiodermatitis was scored on day 13. Vasoconstriction at the topical treatment site was evidenced by the transient occurrence of a visible skin blanch that correlates with therapeutic efficacy in the rat radiodermatitis model. This skin blanch may serve as a surrogate efficacy marker for clinical studies. The general strategy of using topical vasoconstrictors to prevent these cancer therapy side effects is addressed in U.S. Pub. No 2007/0077219, which is incorporated by reference in its entirety herein.

[4] = Stability of (−) norepinephrine-HCl dissolved in water at 1000 mM; format: physicochemical; details: 4° C. and 24° C., weeks/months following formulation
Method: (−) norepinephrine-HCl dissolved in water at 1000 mM is stable at 4° C. and 24° C. as determined by the absence of precipitate or colored oxidation products in the weeks/months following initial formulation. Previous formulations of norepinephrine-tartrate in saline (e.g., Levophed®, Hospira, Inc., Lake Forest, Ill.) have norepinephrine concentrations of 1-5 mM.
(−) norepinephrine-HCl was weighed into a glass vial. An appropriate volume of N2-purged water ([…] with vigorous N2 bubbling and stir bar) was delivered to the vial. The vial headspace was flushed with N2 gas and the vial was sealed. The vial was vortexed for 5 seconds to produce a clear solution. A weighed amount of dry citric acid solid was added to the (−) norepinephrine-HCl solution, the vial headspace was flushed with N2 and the vial was sealed. The vial was vortexed until the solution was clear. 200 μl aliquots of (−) norepinephrine-HCl+citric acid solution were added to 2.0 ml, clear, glass vials (previously rinsed with ethanol and dried). The vial headspaces were optionally flushed with N2 gas and the vials were sealed. 3.0 ml of (−) norepinephrine-HCl+citric acid solution was transferred to a glass vial, an appropriate dry weight of sodium EDTA was added to the vial, the vial headspace was flushed with N2 gas, the vial was sealed and the vial was vortexed until clear. […]

[5] = system: radiation-treated rats; details: topical, applied prior to irradiation of rat skin; cited from earlier work
[6] = molecular target: β2 adrenergic receptor (Homo sapiens, UniProt P07550); details: cited from earlier work
[7] = super-saturated solutions for topical application; cited from earlier work

β2 adrenergic receptor, sequence (P07550 whole entry, species assumed): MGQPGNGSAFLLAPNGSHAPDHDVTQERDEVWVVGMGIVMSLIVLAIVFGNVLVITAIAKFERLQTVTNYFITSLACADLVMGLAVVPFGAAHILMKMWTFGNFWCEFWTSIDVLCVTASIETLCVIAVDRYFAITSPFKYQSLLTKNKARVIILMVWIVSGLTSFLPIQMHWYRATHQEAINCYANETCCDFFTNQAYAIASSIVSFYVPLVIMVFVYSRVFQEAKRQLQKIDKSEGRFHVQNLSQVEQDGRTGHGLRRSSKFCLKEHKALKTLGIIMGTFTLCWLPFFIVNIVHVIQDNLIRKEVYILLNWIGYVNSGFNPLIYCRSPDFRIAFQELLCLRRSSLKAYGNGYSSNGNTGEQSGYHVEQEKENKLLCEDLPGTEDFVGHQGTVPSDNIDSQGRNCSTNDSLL

In the case of `Cl.NCC(O)c1ccc(O)c(O)c1` (racemic) [(+/−) norepinephrine-HCl], the “vasoconstrictor activity in inducing a skin blanch response” value [1] is reported as “at least the same activity”, the maximum solubility [2] is reported as “at least 2000 mM” and the “solubility relative to (−) norepinephrine-tartrate” value [2] is reported as “at least 10 fold”.

With `Cl.NC[C@H](O)c1ccc(O)c(O)c1` [(−) norepinephrine-HCl] the maximum solubility [2] was “at least 2000 mM”, the occurrence of radiodermatitis [3] was “absence of radiodermatitis” and the “stability by absence of precipitate or colored oxidation products” value [4] was “stable”.

In the case of `CNC[C@H](O)c1ccc(O)c(O)c1` [epinephrine], the “protection against development of radiation dermatitis” value [5] is given as “complete protection”.

In the case of `NC[C@H](O)c1ccc(O)c(O)c1` [norepinephrine], the “binding to the β2 adrenergic receptor” value [6] is given as “does not bind” and the “protection against development of radiation dermatitis” value [5] is given as “the same protection”.

For (−) norepinephrine-tartrate, the “stability of super-saturated solution” value [7] is listed as “stable for only a few hours”, the maximum solubility [2] is listed as 200 mM and the solubility limit [2] is listed as “about 200 mM”.
